Reference: patent EP4029501A1, “COMBINATION OF POLYAROMATIC UREA DERIVATIVES AND GLUCOCORTICOID OR HDAC INHIBITOR FOR THE TREATMENT OF DISEASES OR CONDITIONS ASSOCIATED WITH MUSCLE CELLS AND/OR SATELLITE CELLS” (Anagenesis Biotechnologies, priority 2021, dated 2022)

System: muscle progenitors derived from DMD hiPSC
Experiment: Myotube assay: total myotube area per well (alpha-actinin staining)
Type: cell-based, human
Conditions: Homo sapiens, Myotube, 72 h, DMD or WT cell source not given; for Emax: efficacy, MA = normalized Myotube Area, 3 days incubation; for EC50: myogenic activity, half-maximal generation of myotubes, 10 points dose-response 1.5 nM to 30 µM, 3 days
Protocol: An in vitro assay for assessing the efficacy of compounds for use in treating, ameliorating, delaying, curing and/or preventing a disease or condition associated with muscle cells and/or satellite cells is described in example 78. Herein, the generation of myotubes and satellite cells after adding a compound to a myotube assay workflow is assessed. Said myotube assay workflow is derived from wild-type or DMD human induced pluripotent stem cells (WT hiPSC or DMD hiPSC). Before the addition of said compound, the assay comprises satellite-like cells, but no significant amount of myotubes.
The efficacy of said compound for use in treating, ameliorating, delaying, curing and/or preventing a disease or condition associated with muscle cells and/or satellite cells is positively correlated with the generation of myotubes (i.e. the increase of the area occupied by myotubes on the assay) and/or satellite cells (i.e. the increase of the number of satellite cells) in the assay after adding said compound. The generation of myotubes by the addition of said compound is expressed as the EC50 value, the concentration of said compound that corresponds with the half-maximal generation of myotubes, and the MA (normalized myotube area) value, the normalized area occupied by generated myotubes on the assay. […] Since muscle cells are formed from myotubes during myogenesis, the generation of myotubes in the assay is a good indicator of the ability of said compound to induce the formation of functional muscle cells in vivo. The number of satellite cells is measured as the percentage of Pax7 positive cells, relative to the total number of cells in the assay, as shown in Figure 3. The percentage of Pax7 is a good indicator of the ability of said compound to induce the formation of satellite cells which are able to play a role in muscle repair and regeneration in vivo.
DMD human induced pluripotent stem cells (hereafter "DMD hiPSC"), generated from the NCRM-1 hiPSC WT cell line by gene editing, or WT human induced pluripotent stem cells (hereafter "WT hiPSC"), being NCRM-1 hiPSC wt cell line, have been differentiated according to Chal et al. 2015, 2016, to produce muscle progenitors (hereafter "hMP"). The hMP population contains satellite-like cells (i.e Pax7-positive cells) and satellite cells' progenies (i.e. Myogenin-positive cells).
Figure 1 provides an example of a Myotube assay workflow. At day 0, hMP are thawed and 3.1 million cells are plated into a T75-flask coated with hESC-qualified Matrigel™ (Corning) in SkGM proliferating medium (PromoCells), supplemented with 5 µM Y-27632 (Tocris Bioscience). On day 2, SkGM proliferating medium is refreshed. On day 4, hMP are harvested and transferred into a 384-well plate coated with collagen type I at a density of 3500 cells/well in a DMEM-based medium, containing 5% of knockout serum replacement (Gibco), 1% PenStrep (Gibco), 1% MEM NEAA (Gibco) and 0.1 mM 2-mercaptoethanol (Gibco) (hereafter "K5 medium") and 5 µM Y-27632. Compounds to be tested are then added in the medium and incubated for 3 days at 37°C. On day 7, cells are fixed and immunostained. For example, myotubes (alpha-actinin staining) and satellite-like (Pax7 staining) cells can be analyzed for total myotube area per well or Pax7-positive cell quantification.
DMD hMP were put in the Myotube assay according to the workflow described in Example 2.1. In particular, compound (i) was added at concentrations ranging from 1.5 nM to 30 µM, starting from day 4. hMP were cultivated for three more days in presence of compound (i), then fixed and analyzed for quantification of total myotube area per well. Duplicates of each condition were averaged.

In the case of `CNC(=O)c1cc(Oc2ccc(NC(=O)Nc3cc(C(C)(C)C)nn3-c3ccc4ncccc4c3)c3ccccc23)ccn1` [(bf), 4-((4-(3-(3-(tert-butyl)-1-(quinolin-6-yl)-1 H-pyrazol-5-yl)ureido)naphthalen-1-yl)oxy)-N-methylpicolinamide], the Emax is reported as ≥ 75% and the EC50 is reported as 1000 to 5000 nM.
For `CSc1cc(Oc2ccnc3[nH]c(=O)cnc23)ccc1NC(=O)Nc1cc(C(C)(C)C)nn1-c1ccc2ncccc2c1` [(bm), 1-(3-(tert-butyl)-1-(quinolin-6-yl)-1 H-pyrazol-5-yl)-3-(2-(methylthio)-4-((3-oxo-3,4-dihydropyrido[2,3-b]pyrazin-8-yl)oxy)phenyl)urea], the Emax was ≥ 75% and the EC50 was < 500 nM.
In the case of `CC(C)(C)c1cc(NC(=O)Nc2ccc(Oc3ccnc4[nH]c(=O)cnc34)cc2Cl)n(-c2ccccc2)n1` [(ak), 1-(3-(tert-butyl)-1-phenyl-1H-pyrazol-5-yl)-3-(2-chloro-4-((3-oxo-3,4-dihydropyrido[2,3-b]pyrazin-8-yl)oxy)phenyl)urea], the Emax is reported as ≥ 75% and the EC50 is reported as ≥ 5000 nM.
For `CC(C)(C)c1cc(NC(=O)Nc2ccc(Oc3ccnc4[nH]c(=O)cnc34)c3ccccc23)n(-c2ccc3ncccc3c2)n1` [(bb), 1-(3-(tert-butyl)-1-(quinolin-6-yl)-1 H-pyrazol-5-yl)-3-(4-((3-oxo-3,4-dihydropyrido[2,3-b]pyrazin-8-yl)oxy)naphthalen-1-yl)urea], the Emax was ≥ 75% and the EC50 was < 500 nM.
In the case of `CC(C)(C)c1cc(NC(=O)Nc2ccc(Oc3ccnc4[nH]c(=O)cnc34)cc2F)n(Cc2ccccc2)n1` [(j), 1-(1-benzyl-3-(tert-butyl)-1 H-pyrazol-5-yl)-3-(2-fluoro-4-((3-oxo-3,4-dihydropyrido[2,3-b]pyrazin-8-yl)oxy)phenyl)urea], the Emax is reported as 50 to 75% and the EC50 is reported as 1000 to 5000 nM.
`CSc1cc(Oc2ccnc3[nH]c(=O)cnc23)ccc1NC(=O)Nc1cc(C(C)(C)C)nn1C1CCCCC1` [(bn), 1-(3-(tert-butyl)-1-cyclohexyl-1H-pyrazol-5-yl)-3-(2-(methylthio)-4-((3-oxo-3,4-dihydropyrido[2,3-b]pyrazin-8-yl)oxy)phenyl)urea] was tested, and the Emax was 50 to 75% and the EC50 was ≥ 5000 nM.
For `CC(C)(C)c1cc(NC(=O)Nc2ccc(Oc3ccnc4c3CCC(=O)N4)c3ccccc23)on1` [(dg), 1-(3-(tert-butyl)isoxazol-5-yl)-3-(4-((7-oxo-5,6,7,8-tetrahydro-1,8-naphthyridin-4-yl)oxy)naphthalen-1-yl)urea], the Emax was ≥ 75% and the EC50 was < 500 nM.
With `CSc1cc(Oc2ccnc(NC(=O)OC(C)(C)C)c2)ccc1NC(=O)Nc1cc(C(C)(C)C)nn1-c1ccccc1` [(bi), tert-butyl (4-(4-(3-(3-(tert-butyl)-1-phenyl-1H-pyrazol-5-yl)ureido)-3-(methylthio)phenoxy)pyridin-2-yl)carbamate] the Emax was ≥ 75% and the EC50 was < 500 nM.
For `CC(C)(C)c1nnc(NC(=O)Nc2ccc(Oc3ccnc4[nH]c(=O)cnc34)cc2F)s1` [(r), 1-(5-(tert-butyl)-1,3,4-thiadiazol-2-yl)-3-(2-fluoro-4-((3-oxo-3,4-dihydropyrido[2,3-b]pyrazin-8-yl)oxy)phenyl)urea], the Emax was ≥ 75% and the EC50 was ≥ 5000 nM.
`CNC(=O)c1ccc(Oc2ccc(NC(=O)Nc3cc(C(C)(C)C)nn3-c3ccccc3)c(SC)c2)cn1` [(ap), 5-(4-(3-(3-(tert-butyl)-1-phenyl-1H-pyrazol-5-yl)ureido)-3-(methylthio)phenoxy)-N-methylpicolinamide] showed an Emax of 25 to 50% and an EC50 of 500 to 1000 nM.
Work on `Cc1nc2c(Oc3ccc(NC(=O)Nc4cc(C(C)(C)C)nn4-c4ccccc4)c(F)c3)ccnc2c(=O)[nH]1` [(w), 1-(3-(tert-butyl)-1-phenyl-1 H-pyrazol-5-yl)-3-(2-fluoro-4-((2-methyl-4-oxo-3,4-dihydropyrido[3,2-d]pyrimidin-8-yl)oxy)phenyl)urea] yielded an Emax of 50 to 75% and an EC50 of 1000 to 5000 nM.
`CSc1cc(Oc2ccnc(N(CCN(C)C)C(=O)OC(C)(C)C)c2)ccc1NC(=O)Nc1cc(C(C)(C)C)nn1-c1ccccc1` [(ch), tert-butyl (4-(4-(3-(3-(tert-butyl)-1-phenyl-1H-pyrazol-5-yl)ureido)-3-(methylthio)phenoxy)pyridin-2-yl)(2-(dimethylamino)ethyl)carbamate] was tested, and the Emax was 50 to 75% and the EC50 was ≥ 5000 nM.
For `CSc1cc(Oc2ccnc3[nH]c(=O)cnc23)ccc1NC(=O)Nc1cc(C(C)(C)C)nn1-c1ccc(CN(C)C)cc1` [(dp), 1-(3-(tert-butyl)-1-(4-((dimethylamino)methyl)phenyl)-1H-pyrazol-5-yl)-3-(2-(methylthio)-4-((3-oxo-3,4-dihydropyrido[2,3-b]pyrazin-8-yl)oxy)phenyl)urea], the Emax was ≥ 75% and the EC50 was < 500 nM.
With `CSc1cc(Oc2cccc3[nH]c(=O)cnc23)ccc1NC(=O)Nc1cc(C(C)(C)C)nn1-c1ccccc1` [(bu), 1-(3-(tert-butyl)-1-phenyl-1H-pyrazol-5-yl)-3-(2-(methylthio)-4-((2-oxo-1,2-dihydroquinoxalin-5-yl)oxy)phenyl)urea] the Emax was 25 to 50% and the EC50 was ≥ 5000 nM.
In the case of `CCOC(=O)Nc1cc(Oc2ccc(NC(=O)Nc3cc(C(C)(C)C)nn3-c3ccccc3)c(SC)c2)ccn1` [(cv), ethyl (4-(4-(3-(3-(tert-butyl)-1-phenyl-1H-pyrazol-5-yl)ureido)-3-(methylthio)phenoxy)pyridin-2-yl)carbamate], the Emax is reported as ≥ 75% and the EC50 is reported as < 500 nM.
With `CC(C)(C)c1cc(NC(=O)Nc2ccc(Oc3ccnc4[nH]c(=O)cnc34)cc2F)[nH]n1` [(h), 1-(3-(tert-butyl)-1H-pyrazol-5-yl)-3-(2-fluoro-4-((3-oxo-3,4-dihydropyrido[2,3-b]pyrazin-8-yl)oxy)phenyl)urea] the Emax was 25 to 50% and the EC50 was ≥ 5000 nM.
For `CSc1cc(Oc2ccnc3c2CCC(=O)N3)ccc1NC(=O)Nc1cc(C(C)(C)C)nn1-c1cccc(Cl)c1` [(bz), 1-(3-(tert-butyl)-1-(3-chlorophenyl)-1H-pyrazol-5-yl)-3-(2-(methylthio)-4-((7-oxo-5,6,7,8-tetrahydro-1,8-naphthyridin-4-yl)oxy)phenyl)urea], the Emax was ≥ 75% and the EC50 was < 500 nM.
In the case of `CC(C)(C)c1cc(NC(=O)Nc2ccc(Oc3ccnc4[nH]c(=O)cnc34)c(F)c2F)n(-c2ccccc2)n1` [(bo), 1-(3-(tert-butyl)-1-phenyl-1 H-pyrazol-5-yl)-3-(2,3-difluoro-4-((3-oxo-3,4-dihydropyrido[2,3-b]pyrazin-8-yl)oxy)phenyl)urea], the Emax is reported as ≥ 75% and the EC50 is reported as < 500 nM.
`COc1cccc(-n2nc(C(C)(C)C)cc2NC(=O)Nc2ccc(Oc3ccnc4[nH]c(=O)cnc34)cc2SC)c1` [(aw), 1-(3-(tert-butyl)-1-(3-methoxyphenyl)-1 H-pyrazol-5-yl)-3-(2-(methylthio)-4-((3-oxo-3,4-dihydropyrido[2,3-b]pyrazin-8-yl)oxy)phenyl)urea] was tested, and the Emax was ≥ 75% and the EC50 was 500 to 1000 nM.
In the case of `CC(C)(C)c1cc(NC(=O)Nc2cc(F)c(Oc3ccnc4[nH]c(=O)cnc34)cc2F)n(-c2ccccc2)n1` [(bt), 1-(3-(tert-butyl)-1-phenyl-1 H-pyrazol-5-yl)-3-(2,5-difluoro-4-((3-oxo-3,4-dihydropyrido[2,3-b]pyrazin-8-yl)oxy)phenyl)urea], the Emax is reported as ≥ 75% and the EC50 is reported as 500 to 1000 nM.
With `CC(C)(C)c1cc(NC(=O)Nc2ccc(C(=O)c3ccncc3)cc2)n(-c2ccccc2)n1` [(cs), 1-(3-(tert-butyl)-1-phenyl-1 H-pyrazol-5-yl)-3-(4-isonicotinoylphenyl)urea] the Emax was 25 to 50% and the EC50 was ≥ 5000 nM.
For `CSc1cc(Oc2ccnc3[nH]c(=O)cnc23)ccc1NC(=O)Nc1nc(C(C)(C)C)cs1` [(ca), 1-(4-(tert-butyl)thiazol-2-yl)-3-(2-(methylthio)-4-((3-oxo-3,4-dihydropyrido[2,3-b]pyrazin-8-yl)oxy)phenyl)urea], the Emax was ≥ 75% and the EC50 was ≥ 5000 nM.
